Source: PMC4169579, “Proteolytic Activity of Prostate-Specific Antigen (PSA) towards Protein Substrates and Effect of Peptides Stimulating PSA Activity” (PLoS ONE, 2014)
Positions of bridges follow the written chain, without caps; N, C: chain ends. Residues, ends and D or L forms follow the SMILES beside them. No end group written: not given here.

Experiments:
PSA [1] = target: T1, PSA (Homo sapiens, UniProt P07288); test: Enzyme kinetics of PSA with fluorogenic peptide substrate; assay type: biochemical
T1 construct: from tissue; host or cells: pooled human seminal fluid
Method: (§1) The major form of active PSA (isoform PSA-B) was purified from pooled human seminal fluid by immunoaffinity chromatography followed by anion exchange chromatography. Semenogelins I and II were isolated from human seminal fluid as previously described, but instead of alkylating the proteins, the reducing agent 30 mM dithiothreitol (Sigma-Aldrich, St. Louis, MO) was included in all buffers during purification. Semenogelins were stored in the purification buffer containing 2 M urea and 5 mM EDTA at −70°C. Prior to cleavage by PSA, the buffer was exchanged to 50 mM Tris, pH 7.7, containing 0.15 M NaCl (TBS), with Amicon Ultra centrifugal filter units (MW cut-off 30 kDa) (Millipore, Cork, Ireland) at 4°C, and protein concentration was determined by measuring absorbance at 280 nm.
(§2) The proteolytic activity of PSA towards small peptide substrates was compared with two different substrates. Both assays were performed in 96-well microplates (PerkinElmer, Turku, Finland) with duplicates in two separate experiments (n = 2) in TBS buffer containing 1 g/l bovine serum albumin (0.1% BSA-TBS). The chromogenic chymotrypsin substrate S-2586 (MeO-Suc-Arg-Pro-Tyr-pNA·HCl) (Chromogenix Instrumentation Laboratory, Milan, Italy) at 0.125–5 mM concentration or 0.125–2 mM fluorogenic PSA substrate 4-morpholinecarbonyl-HSSKLQ-AMC (7-amido-4-methylcoumarin) (custom peptide from JPT Peptide Technologies GmbH, Berlin, Germany) were added to the wells together with 175 nM (5 µg/ml) PSA. The absorbance was measured at 405 nm immediately and at 5 min intervals for 30 min and fluorescence at 355/460 nm (excitation/emission) after 10 min, 20 min, 40 min, 1 h, 2 h and 4 h incubation at room temperature with a Victor 1420 Multilabel plate reader (PerkinElmer). In the fluorogenic assays all wells contained 5% dimethyl sulfoxide (DMSO).
The maximum velocity of the reaction (Vmax) and the Michaelis constant (Km), i.e., substrate concentration at which the reaction rate is half of the maximum, were evaluated for PSA with both peptide substrates using Sigma Plot 11 with the Enzyme Kinetics Module 1.3 (SYSTAT Software, Inc., San Jose, CA) and the catalytic constant (kcat), i.e., the number of substrate molecules converted to product per time unit, was calculated from the equation kcat = Vmax/[PSA]. The absorbance was converted to molar concentration with the Lambert-Beer equation (A = εcl), using the molar absorptivity of pNA (εpNA = 8800 M^−1cm^−1). Fluorescence (counts per second, cps) was transformed to molar concentrations with SigmaPlot by means of a standard curve for 7-amido-4-methylcoumarin (AMC, Sigma-Aldrich).

PSA [2] = target: T1, PSA; test: Stimulation of PSA activity by peptides, fluorogenic substrate; assay type: biochemical; conditions: 350 nM PSA preincubated with 0.35–350 µM peptide 30 min room temperature, 0.3 mM fluorogenic substrate, 0.75% DMSO, mean ± SD, n = 3; for Emax: read-out: Stimulation (maximal stimulation capacity as compared to PSA alone, Vmax (peptide+PSA)/V(PSA)); for EC50: read-out: [peptide]½Vmax (peptide concentration with half-maximal stimulation)
Method: as §1
(§3) Peptides that bind to PSA and stimulate its activity have previously been identified by phage display. […] The purity of the peptides as determined by HPLC was over 95% in all batches. We have not observed any significant variation in the capacity of the peptides to stimulate the PSA activity between different peptide batches and suppliers.
The proteolytic activity of PSA towards small peptide substrates was compared with two different substrates. Both assays were performed in 96-well microplates (PerkinElmer, Turku, Finland) with duplicates in two separate experiments (n = 2) in TBS buffer containing 1 g/l bovine serum albumin (0.1% BSA-TBS). […] The absorbance was measured at 405 nm immediately and at 5 min intervals for 30 min and fluorescence at 355/460 nm (excitation/emission) after 10 min, 20 min, 40 min, 1 h, 2 h and 4 h incubation at room temperature with a Victor 1420 Multilabel plate reader (PerkinElmer). […]
The effect of the PSA-stimulating peptides on the activity of PSA was characterized with chromogenic and fluorogenic substrates in two (n = 2) and three (n = 3) separate experiments, respectively. […] Then 0.2 mM chromogenic or 0.3 mM fluorogenic substrate was added and absorbance or fluorescence was measured as described above. […] The velocity of the reaction (V) was calculated from the change of absorbance/min or fluorescence/min at the linear phase of the reaction and converted to molar concentration as described above. Vmax (peptide + PSA), i.e., the maximal velocity of the reaction with increasing peptide concentrations and given PSA and substrate concentrations, was determined using SigmaPlot, fitting the data to f = y0+a*(1−exp(−b*x)) using non-linear regression. The maximal stimulatory capacity of the peptide, Vmax (peptide+PSA)/V(PSA), was calculated. The peptide concentrations at which the stimulation of PSA was half of the maximum ([peptide]½Vmax) and at which PSA activity was increased two-fold when compared to PSA alone ([peptide]2V) were also determined.

PSA [3] = target: T1, PSA; test: Stimulation of PSA activity by peptides, chromogenic substrate; assay type: biochemical; conditions: for Emax / EC50: 350 nM PSA preincubated with 0.35–350 µM peptide 30 min room temperature, 0.2 mM chromogenic substrate S-2586, mean ± SD, n = 2; for Emax: read-out: Stimulation (maximal stimulation capacity as compared to PSA alone, Vmax (peptide+PSA)/V(PSA)); for EC50: read-out: [peptide]½Vmax (peptide concentration with half-maximal stimulation)
Method: as §1, §3, §2
The effect of the PSA-stimulating peptides on the activity of PSA was characterized with chromogenic and fluorogenic substrates in two (n = 2) and three (n = 3) separate experiments, respectively. PSA (350 nM) was first preincubated with peptides (0.35–350 µM) for 30 min at room temperature. Then 0.2 mM chromogenic or 0.3 mM fluorogenic substrate was added and absorbance or fluorescence was measured as described above. Fluorogenic assays with the peptides were performed in black 384-well microplates (Corning Inc., Corning, NY) and all wells contained 0.75% DMSO. The velocity of the reaction (V) was calculated from the change of absorbance/min or fluorescence/min at the linear phase of the reaction and converted to molar concentration as described above. Vmax (peptide + PSA), i.e., the maximal velocity of the reaction with increasing peptide concentrations and given PSA and substrate concentrations, was determined using SigmaPlot, fitting the data to f = y0+a*(1−exp(−b*x)) using non-linear regression. The maximal stimulatory capacity of the peptide, Vmax (peptide+PSA)/V(PSA), was calculated. The peptide concentrations at which the stimulation of PSA was half of the maximum ([peptide]½Vmax) and at which PSA activity was increased two-fold when compared to PSA alone ([peptide]2V) were also determined.

PSA [4] = target: T1, PSA; test: Surface plasmon resonance binding of peptides to PSA; conditions: SPR, peptide 1.2–600 µM, PBS pH 7.4, 25°C
Method: The binding kinetics and affinity of the peptides stimulating the activity of PSA were studied by surface plasmon resonance (SPR) on a Biacore T100 instrument using Biacore T100 Control Software 2.0.3 (both from GE Healthcare, Uppsala, Sweden). PSA (20 µg/ml, 0.7 µM) and α-chymotrypsin (20 µg/ml, 0.8 µM) were covalently immobilized on the Series S Sensor Chip CM5 (GE Healthcare) by using amine coupling in 10 mM sodium acetate buffer, pH 5.0. The immobilization levels varied in different experiments between 2000–3900 resonance units (RU) for PSA and 1400–2500 RU for chymotrypsin. Chymotrypsin was used as a reference for PSA, i.e., the binding of peptides to the chymotrypsin surface was subtracted as a non-specific interaction from the binding of peptides to the PSA surface in all measurements.
Binding to PSA was studied at various peptide concentrations (1.2–600 µM) in phosphate buffered saline (PBS), pH 7.4 (Lonza, Verviers, Belgium), containing 6.7 mM PO4 and 0.15 M NaCl, with a flow rate of 40 µl/min at 25°C. Contact time of the peptides with PSA was 60 s and dissociation time 180 s. In all other steps except the peptide binding the running buffer was supplemented with 0.005% surfactant P20 (GE Healthcare). The chip was washed after each measurement cycle with the running buffer, which removed all peptides. The binding data were analyzed using Biacore T100 Evaluation software 2.0.3. […]

PSA [5] = target: T1, PSA; test: Proteolytic cleavage of protein substrates by PSA (SDS-PAGE, silver staining); assay type: biochemical; conditions: 0.2 µM PSA, 1 µM substrate, TBS, 37°C; disappearance of full-length band
Method: as §1
(§4) Protein LoBind tubes (Eppendorf AG, Hamburg, Germany) were used in all protein degradation experiments.
(§5) PSA (0.2–1 µM) and 0.5–1 µM of each protein substrate were incubated at 37°C for 22 h in TBS buffer. During the incubation, samples of 15 µl were taken at different time points: 0 min, 10 min, 30 min, 2 h, 5 h and 22 h, and stored at −20°C before further analysis.
Immediately after each incubation, reducing 4× SDS-loading buffer (8% SDS), containing 1 M β-mercaptoethanol or 75 mM dithiothreitol, was added to each sample and proteins were denatured at 70°C for 10 min. The samples were immediately analyzed by SDS-PAGE or frozen at −20°C. Frozen samples were heated again at 70°C before loading on the gel. The cleavage of protein substrates by PSA, i.e., the disappearance of the full-length protein bands, was quantified from scanned images of silver stained gels by the measurement of relative optical densities of the protein bands using ImageJ [40]. […]
Proteins were visualized either by silver staining or Western blotting. […] After 30 min incubation in 0.2% AgNO3, the gel was rinsed briefly with water and proteins were detected with development solution, containing 700 µl/l of 37% formaldehyde, 0.001% sodium thiosulfate and 3% anhydrous Na2CO3. […]

plasminogen = test: Plasminogen cleavage control with MMP-3; assay type: biochemical, human; conditions: 1 µM MMP-3 or PSA, 1 µM plasminogen, 37°C, 22 h, TBS
Method: as §4, §5

IGFBP-3 = test: Immunofluorometric assay of intact IGFBP-3 after incubation with PSA and peptides; assay type: biochemical, human; conditions: 0.2 µM PSA, 2.2 µM IGFBP-3, 37°C, TBS; 22 h in text (24 h in method), n = 2
Method: To study the degradation of IGFBP-3 by PSA, we used a sandwich-type immunofluorometric assay (IFMA) that measures only intact IGFBP-3, but not that cleaved by PSA [43], [44]. […] After incubation, the samples were diluted 1∶1000 in IFMA assay buffer and IGFBP-3 concentrations were measured as previously described,[44].

HUVECs = test: HUVEC tube formation assay on Matrigel; assay type: cell-based, human
Method: Human umbilical vein endothelial cells (HUVECs) were isolated from umbilical cord veins and grown in Endothelial Cell Growth Medium (Promocell, Heidelberg, Germany) with 2% Ultroser G BioSepra serum substitute (PALL BioSepra, Cergy, France) and growth factors EGF and bFGF. For tube formation, HUVECs were grown on top of Matrigel (BD Biosciences) as described previously, [29].
To study the effect of PSA-cleaved protein fragments, 0.08 µM nidogen-1 or 0.4 µM galectin-3 (10 µg/ml each) were first incubated with 1 µM PSA for 24 h at 37°C in PBS (Lonza). Then PSA activity was blocked by one-hour incubation at room temperature with 2 µM monoclonal antibody 5C7 [38]. The mixture containing nidogen-1 or galectin-3 fragments with PSA blocked by antibody or the same amount of intact nidogen-1 or galectin-3 were added together with the cells onto gelled Matrigel and the cells were allowed to form tubular networks for 20 h. Control wells contained either PBS or 1 µM PSA. After overnight incubation, cell culture medium was collected from PBS and PSA control wells for SDS-PAGE and Western blotting. Images of tubular networks (100×magnification) were taken using an Axiovert 200 inverted light microscope connected to an AxioCam digital camera and visualized by AxioVision software (all from Zeiss, Göttingen, Germany).

T1 sequence (P07288 25-261): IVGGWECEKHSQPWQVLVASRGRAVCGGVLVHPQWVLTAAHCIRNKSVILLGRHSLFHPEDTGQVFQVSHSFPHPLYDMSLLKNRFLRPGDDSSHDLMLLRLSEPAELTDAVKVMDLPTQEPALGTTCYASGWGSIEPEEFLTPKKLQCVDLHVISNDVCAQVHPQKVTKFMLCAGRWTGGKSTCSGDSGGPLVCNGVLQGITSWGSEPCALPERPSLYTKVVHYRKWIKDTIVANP

For “4-morpholinecarbonyl-HSSKLQ-AMC [Fluorogenic substrate, fluorogenic PSA substrate, AMC = 7-amido-4-methylcoumarin]”, the “kcat/Km compared to literature” value (PSA [1]; compared to that reported by Denmeade et al. [36]) was “about five-fold higher”, the kcat (PSA [1]; kcat = Vmax/[PSA], substrate 0.125–2 mM, 175 nM PSA, 0.1% BSA-TBS, 5% DMSO, room temperature, mean ± SD of two experiments) was 0.19 ± 0.09 s⁻¹ and the Km (PSA [1]; substrate 0.125–2 mM, 175 nM PSA, 0.1% BSA-TBS, 5% DMSO, 355/460 nm, room temperature, 10 min to 4 h, mean ± SD of two experiments) was 1580 ± 40 µM. For the same compound, the kcat/Km (PSA [1]; substrate 0.125–2 mM, 175 nM PSA, 0.1% BSA-TBS, 5% DMSO, room temperature, mean ± SD of two experiments) was 122.0±59.4 s^−1M^−1.

`CC(C)C[C@@H]1NC(=O)[C@H](Cc2ccc(O)cc2)NC(=O)[C@H](CC(=O)O)NC(=O)[C@H](Cc2ccc(O)cc2)NC(=O)[C@H](CC(N)=O)NC(=O)[C@H](Cc2c[nH]cn2)NC(=O)[C@H](C)NC(=O)[C@H](Cc2ccccc2)NC(=O)[C@H](C(C)C)NC(=O)[C@@H](N)CSSC[C@@H](C(N)=O)NC(=O)[C@H](C(C)C)NC1=O` [B2-NH2] (H-CVFAHNYDYLVC-NH2; disulfide 1-12) gave an Emax (PSA [2]) of 391 ± 11%, an EC50 (PSA [2]) of 4.78 ± 1.55 µM and an Emax (PSA [3]) of 400 ± 14%. It also gave an EC50 (PSA [3]) of 5.13 ± 1.43 µM.

Compound `CC[C@H](C)[C@@H]1NC(=O)[C@@H]2CSSC[C@H](NC(=O)[C@H](Cc3c[nH]cn3)NC(=O)[C@H](Cc3c[nH]cn3)NC(=O)[C@H](CCC(=O)O)NC1=O)C(=O)N[C@@H](Cc1c[nH]c3ccccc13)C(=O)N[C@@H]([C@@H](C)O)C(=O)N[C@H](C(=O)O)CSSC[C@H](N)C(=O)N[C@@H](C(C)C)C(=O)N[C@@H](C)C(=O)N[C@@H](Cc1ccc(O)cc1)C(=O)N2` [C4] (H-CVAYCIEHHCWTC-OH; disulfide 1-13, 5-10) has an Emax (PSA [2]) of 610 ± 8%, an EC50 (PSA [2]) of 3.72 ± 0.5 µM and an Emax (PSA [3]) of 785 ± 7%. For the same compound, the EC50 (PSA [3]) was 5.62 ± 2.17 µM.

“CVFAHNADALVC (disulfide 1-12 (inferred)) [B2-NH2-control]” was tested, and the “binding to PSA” value (PSA [4]) was “All peptides, except the inactive B2-NH2-control peptide, bound to PSA” and the “Stimulation of PSA activity (summary in words)” value (PSA [3]; towards chromogenic and fluorogenic peptide substrates (Figure 1, Table 2), B2 and B2-NH2-control: Figure 1A (chromogenic)) was “did not stimulate PSA activity at all”.

With “IGFBP-3: recombinant human insulin-like growth factor-binding protein-3” the “time for degradation of 50% of the protein” value (PSA [5]) was 22 h.

For “PSA: major form of active PSA (isoform PSA-B) purified from pooled human seminal fluid”, the cleavage of plasminogen (plasminogen) was “but not PSA, cleaved 1 µM plasminogen”, the “decrease of the content of intact IGFBP-3” value (IGFBP-3) was 50% and the tube formation (HUVECs; 1 µM PSA, 20 h, HUVECs on Matrigel) was “reduced tube formation”. The “effect of PSA pre-incubation of gelled Matrigel on tube formation” value (HUVECs; overnight pre-incubation of Matrigel with PSA, then PSA inhibited with antibody, Mattsson et al. unpublished data) was “did not inhibit endothelial cell tube formation”.

For fibronectin, the “time for degradation of 50% of the protein” value (PSA [5]) was 17 h.
